Data set [1] is described as follows: in vitro. The settings on record: mouse, plasma.
Data set [2] in a line: in vivo. The settings on record: Sprague-Dawley, rat, iv, 1 mg/kg.
A short description of data set [3]: in vivo. As to conditions: Sprague-Dawley, rat, plasma, iv, 1 mg/kg.
A short description of data set [4]: in vivo. The settings on record: CD1, mouse, po, 100 mg/kg.
A short description of data set [5]: in vitro. As to conditions: dog, MDCK.
Data set [6] can be described thus: in vivo. As to conditions: CD1, mouse, plasma, po, 100 mg/kg.
The nature of data set [7]: in vitro. As to conditions: dog, MDCK. This is another data set of the same source.
A short description of data set [8]: in vitro. The settings on record: human, liver microsomes. Background: Microsomes from liver hold many membrane-bound enzymes, among them those of drug oxidation.
Data set [9] is described as follows: in vivo. As to conditions: Sprague-Dawley, rat, po, 5 mg/kg.
The nature of data set [10]: physchem. The settings on record: PBS buffer, pH 7.4.
The nature of data set [11]: in vivo. The settings on record: Sprague-Dawley, rat.
Data set [12] can be described thus: in vitro. As to conditions: rat, plasma.
The nature of data set [13]: in vitro. The settings on record: human, plasma.
Data set [14] in a line: in vitro. The settings on record: mouse, liver microsomes.
Data set [15] is described as follows: in vitro. The settings on record: rat, liver microsomes.
Data set [16] is described as follows: physchem. As to conditions: octanol/aqueous buffer, pH 7.4.
In data set [17] the target is Tyrosine-protein kinase Lck (Homo sapiens) (UniProt P06239). The settings on record: 180 nM.
Sequence of Tyrosine-protein kinase Lck (Homo sapiens) (P06239 2-509 limits assumed): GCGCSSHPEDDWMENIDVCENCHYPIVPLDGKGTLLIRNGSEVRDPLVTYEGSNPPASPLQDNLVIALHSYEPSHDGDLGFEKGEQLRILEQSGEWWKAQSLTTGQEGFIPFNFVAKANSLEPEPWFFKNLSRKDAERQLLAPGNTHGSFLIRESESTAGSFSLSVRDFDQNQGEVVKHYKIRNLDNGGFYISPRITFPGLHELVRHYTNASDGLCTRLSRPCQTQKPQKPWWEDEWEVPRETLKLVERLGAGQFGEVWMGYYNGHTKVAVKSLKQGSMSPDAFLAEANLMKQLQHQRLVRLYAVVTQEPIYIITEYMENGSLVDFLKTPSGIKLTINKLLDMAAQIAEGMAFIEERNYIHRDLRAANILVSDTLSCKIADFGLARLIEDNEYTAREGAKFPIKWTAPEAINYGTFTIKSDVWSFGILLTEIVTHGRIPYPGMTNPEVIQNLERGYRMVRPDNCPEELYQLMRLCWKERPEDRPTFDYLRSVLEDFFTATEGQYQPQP
The target in data set [18] is Ribosomal protein S6 kinase alpha-2 (Homo sapiens) (UniProt Q15349). The settings on record: 180 nM.
Sequence of Ribosomal protein S6 kinase alpha-2 (Homo sapiens) (Q15349 whole entry): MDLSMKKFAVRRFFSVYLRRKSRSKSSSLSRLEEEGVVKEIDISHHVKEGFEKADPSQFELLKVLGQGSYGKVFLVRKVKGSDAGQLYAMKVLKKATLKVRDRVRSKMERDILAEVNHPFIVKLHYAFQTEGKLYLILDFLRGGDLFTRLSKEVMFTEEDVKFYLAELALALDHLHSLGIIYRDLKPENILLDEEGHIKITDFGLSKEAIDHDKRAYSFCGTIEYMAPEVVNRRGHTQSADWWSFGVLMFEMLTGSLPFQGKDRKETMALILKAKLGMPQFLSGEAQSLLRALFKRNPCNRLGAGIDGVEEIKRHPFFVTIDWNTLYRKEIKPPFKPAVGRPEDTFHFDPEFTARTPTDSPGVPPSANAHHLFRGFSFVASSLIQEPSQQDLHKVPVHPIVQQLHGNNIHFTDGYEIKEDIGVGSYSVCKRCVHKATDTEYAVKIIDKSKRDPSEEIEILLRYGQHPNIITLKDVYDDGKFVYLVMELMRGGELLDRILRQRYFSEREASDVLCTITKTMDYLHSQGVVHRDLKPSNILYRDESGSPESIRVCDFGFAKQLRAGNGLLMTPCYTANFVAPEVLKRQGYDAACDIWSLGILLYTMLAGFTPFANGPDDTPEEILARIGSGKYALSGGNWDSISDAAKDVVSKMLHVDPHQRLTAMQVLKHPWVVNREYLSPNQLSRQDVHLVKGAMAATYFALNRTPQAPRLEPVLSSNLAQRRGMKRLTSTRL
Data set [19] addresses Ribosomal protein S6 kinase alpha-6 (Homo sapiens) (UniProt Q9UK32). The settings on record: 180 nM.
Data set [20] can be described thus: in vitro. The settings on record: human, liver microsomes. This is another data set of the same source.
Data set [21] addresses Ribosomal protein S6 kinase alpha-3 (Homo sapiens) (UniProt P51812). The settings on record: 180 nM.
A short description of data set [22]: in vivo. The settings on record: CD1, mouse, plasma, iv, 1 mg/kg.
Data set [23] addresses Cyclin-dependent kinase 5 (Homo sapiens) (UniProt Q00535). The settings on record: 180 nM.
A short description of data set [24]: in vivo. The settings on record: CD1, mouse.
Data set [25] is filed under the species Homo sapiens. The settings on record: 180 nM.
Data set [26] in a line: in vivo. The settings on record: CD1, mouse, po, 5 mg/kg.
A short description of data set [27]: in vivo. The settings on record: CD1, mouse, iv, 1 mg/kg.
Data set [28] in a line: in vivo. The settings on record: CD1, mouse, plasma, po, 5 mg/kg.
The nature of data set [29]: in vivo. As to conditions: CD1, mouse, plasma, iv, 1 mg/kg. The source holds these as a separate data set.
For data set [30], the species on record is Mus musculus. Briefly: animal or person. The settings on record: C57BL/6, po, read-out: INH.
For data set [31], the species on record is Mus musculus. In words: animal or person. As to conditions: C57BL/6, po, read-out: INH. The source holds these as a separate data set.
Data set [32] is filed under the species Mus musculus. Briefly: animal or person. The settings on record: C57BL/6, po, read-out: INH. This is another data set of the same source.
The species named for data set [33] is Mus musculus. Briefly: animal or person. As to conditions: C57BL/6, po, read-out: INH. This is another data set of the same source.

The values that follow come from ChEMBL document CHEMBL2385054, “Lead optimization of a 4-aminopyridine benzamide scaffold to identify potent, selective, and orally bioavailable TYK2 inhibitors” (J Med Chem, 2013).

In brackets after ≈: the same amount, converted by molar mass.

Sequence of Ribosomal protein S6 kinase alpha-3 (Homo sapiens) (P51812 whole entry): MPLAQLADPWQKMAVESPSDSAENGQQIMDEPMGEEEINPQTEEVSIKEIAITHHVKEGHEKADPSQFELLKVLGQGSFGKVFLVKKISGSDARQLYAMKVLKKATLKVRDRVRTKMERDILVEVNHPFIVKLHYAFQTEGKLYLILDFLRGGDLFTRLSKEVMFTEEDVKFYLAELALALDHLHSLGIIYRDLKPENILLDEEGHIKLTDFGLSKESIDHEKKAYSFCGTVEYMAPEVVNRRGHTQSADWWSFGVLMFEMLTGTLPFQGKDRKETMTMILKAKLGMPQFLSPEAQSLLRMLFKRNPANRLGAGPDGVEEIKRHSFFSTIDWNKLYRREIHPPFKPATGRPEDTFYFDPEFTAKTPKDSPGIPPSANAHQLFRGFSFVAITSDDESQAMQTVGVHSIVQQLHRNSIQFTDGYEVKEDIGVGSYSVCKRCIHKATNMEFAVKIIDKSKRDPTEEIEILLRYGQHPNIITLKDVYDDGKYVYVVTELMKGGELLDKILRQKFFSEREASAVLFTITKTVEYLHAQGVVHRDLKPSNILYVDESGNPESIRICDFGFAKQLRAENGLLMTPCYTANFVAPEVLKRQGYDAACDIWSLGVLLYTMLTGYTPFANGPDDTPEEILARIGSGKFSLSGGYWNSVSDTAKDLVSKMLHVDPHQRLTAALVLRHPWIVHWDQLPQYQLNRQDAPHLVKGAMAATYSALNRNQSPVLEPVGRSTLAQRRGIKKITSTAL
Sequence of Ribosomal protein S6 kinase alpha-6 (Homo sapiens) (Q9UK32 whole entry): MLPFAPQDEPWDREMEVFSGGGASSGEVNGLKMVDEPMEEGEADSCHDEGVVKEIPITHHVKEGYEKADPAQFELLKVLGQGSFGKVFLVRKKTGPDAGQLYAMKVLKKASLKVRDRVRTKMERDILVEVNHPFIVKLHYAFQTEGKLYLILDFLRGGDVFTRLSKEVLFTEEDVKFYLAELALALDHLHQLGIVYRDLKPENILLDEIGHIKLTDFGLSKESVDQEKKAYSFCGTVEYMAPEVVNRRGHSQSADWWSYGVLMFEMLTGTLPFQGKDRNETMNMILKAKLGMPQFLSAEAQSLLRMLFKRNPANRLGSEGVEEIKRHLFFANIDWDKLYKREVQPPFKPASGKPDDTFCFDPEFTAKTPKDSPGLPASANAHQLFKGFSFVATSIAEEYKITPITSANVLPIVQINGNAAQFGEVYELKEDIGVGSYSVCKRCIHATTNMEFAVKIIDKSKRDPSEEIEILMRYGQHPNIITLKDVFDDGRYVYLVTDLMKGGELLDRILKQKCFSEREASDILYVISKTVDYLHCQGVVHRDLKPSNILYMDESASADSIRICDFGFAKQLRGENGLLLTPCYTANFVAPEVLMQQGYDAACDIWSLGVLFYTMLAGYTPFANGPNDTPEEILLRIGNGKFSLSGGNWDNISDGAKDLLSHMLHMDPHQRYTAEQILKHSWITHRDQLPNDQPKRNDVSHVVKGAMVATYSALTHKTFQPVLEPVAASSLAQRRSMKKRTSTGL
Sequence of Cyclin-dependent kinase 5 (Homo sapiens) (Q00535 whole entry, looked up): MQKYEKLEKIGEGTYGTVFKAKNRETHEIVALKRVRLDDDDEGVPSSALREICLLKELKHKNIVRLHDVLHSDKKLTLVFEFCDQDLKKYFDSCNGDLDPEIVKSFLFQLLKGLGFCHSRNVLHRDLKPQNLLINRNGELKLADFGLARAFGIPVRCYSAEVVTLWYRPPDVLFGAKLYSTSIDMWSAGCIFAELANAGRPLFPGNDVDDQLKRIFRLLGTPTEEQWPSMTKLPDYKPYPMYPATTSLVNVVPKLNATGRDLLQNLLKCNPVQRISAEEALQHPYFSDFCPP

For orientation: fraction unbound means free concentration divided by total concentration. High values mean much free substance, low ones little free substance. What is called Vd is a proportionality between amount in the body and measured concentration, not a real space. Low values mean confinement near the circulation, high ones extensive tissue distribution. The clearance is the rate of elimination divided by the concentration. A high value points to efficient removal. As usually defined, the Cmax is the highest concentration seen after dosing. A word on the Papp A→B: it is how fast a substance crosses the layer from the apical side. Low readings indicate slow passage, high ones fast passage. One may read the AUC as the area under the concentration-time curve, a measure of exposure. Usually efflux ratio stands for a quotient of directional permeabilities that is used to spot active efflux. By bioavailability is commonly meant the share of a dose that reaches the circulation, judged against a reference dose that is usually intravenous. The low end stands for poor availability, the high end for good availability. For orientation: solubility means how much of the substance goes into solution per volume. Higher therefore signals a readily soluble substance. One may read the half-life as the time needed for the level to fall by half in the phase considered. For orientation: logD means the decadic logarithm of the distribution of all forms, ionised or not, between an organic phase and buffer at a given pH. Take `O=C(Nc1ccnc(NC(=O)[C@H]2C[C@H]2F)c1)c1c(Cl)cccc1Cl`: the fraction unbound in [1] is 0.018; in data set [12], 0.048; in [13], 0.025. The same molecule showed a Vd in [2] of 1 L/kg. The molecule further registered a clearance in data set [3] of 15 mL/min/kg. The molecule also gave a Cmax in data set [4] of 47 µM. The same molecule displayed a Papp A→B in data set [5] of 20 ×10⁻⁶ cm/s. Further, in data set [6], the AUC worked out at 50 µM·h. The efflux ratio in [7] was 0.8. The CLhep predicted in data set [8] was 11 mL/min/kg; in [14], 55 mL/min/kg; in data set [15], 21 mL/min/kg. In addition, in data set [9], the bioavailability was determined as 100%. This molecule also registered a solubility in data set [10] of 126 µg/mL (≈ 342 µM). The molecule also showed a half-life in data set [11] of 1.8 h. This molecule displayed a log distribution coefficient (logD) in data set [16] of 2.9.
Usually inhibition stands for the percentage by which the read-out fell short of the control. High values mean a strong effect, low ones a weak effect. Regarding `N#Cc1cc(Cl)c(C(=O)Nc2ccnc(NC(=O)C3CC3)c2)c(Cl)c1`, the inhibition is 61% in [17]; 80% in [18]; 80% in [19]; 73% in data set [21]; 61% in data set [23]; 68% in [25]. In data set [20], this molecule returned a metabolised of less than 2%. Besides, the fraction unbound in data set [1] is 0.032; in data set [12] it was 0.059; in data set [13] it was 0.022. Further, the figures for the Vd in data set [2] and in data set [27] were 0.8 L/kg and 0.9 L/kg, respectively. The clearance in data set [3] came to 3.1 mL/min/kg; in data set [22], 13 mL/min/kg. For the same molecule, the Cmax in [4] was 119 µM. The Papp A→B in data set [5] was 15 ×10⁻⁶ cm/s. Moreover, in [6], the AUC was 818 µM·h. Moreover, in [7], the efflux ratio worked out at 1. Moreover, the CLhep predicted is 8 mL/min/kg in [8], 38 mL/min/kg in [14] and 12 mL/min/kg in data set [15]. In addition, the half-life in data set [24] was 1 h; in data set [11], 4.2 h. Moreover, the bioavailability in data set [9] is 86%; in data set [26], 100%. Besides, the solubility in data set [10] is 64 µg/mL (≈ 171 µM). The same molecule displayed a logD in data set [16] of 3.2.
Turning to `N#Cc1cc(Cl)c(C(=O)Nc2ccnc(NC(=O)[C@H]3C[C@H]3F)c2)c(Cl)c1`, the fraction unbound is 0.017 in data set [1], 0.082 in data set [12] and 0.068 in data set [13]. Further, the Vd in [2] stood at 1 L/kg. In data set [3], the clearance was 4.6 mL/min/kg. The molecule also gave a Cmax in data set [4] of 143 µM. In addition, in data set [5], the apparent permeability from apical to basolateral (Papp A→B) came out at 12 ×10⁻⁶ cm/s. For the same molecule, in data set [6], the AUC turned out to be 1090 µM·h. Besides, the efflux ratio in [7] was 1.5. Further, the CLhep predicted in [8] is 11 mL/min/kg; in [14], 36 mL/min/kg; in data set [15], 10 mL/min/kg. The same molecule registered a bioavailability in data set [9] of 100%. Further, the solubility in data set [10] was 74 µg/mL (≈ 188 µM). In data set [11], the half-life is 4.1 h. Further, the logD in [16] was found to be 2.8.
`O=C(Nc1ccnc(NC(=O)C2CC2)c1)c1c(Cl)cc(-c2nnc[nH]2)cc1Cl` had a solubility in data set [10] of 2 µg/mL (≈ 4.79 µM).
In the case of `O=C(Nc1ccnc(NC(=O)C2CC2)c1)c1c(Cl)cc(-c2cn[nH]c2)cc1Cl`, the concentration in solution in data set [10] (solubility) was 1 µg/mL (≈ 2.4 µM).
Take `O=C(Nc1ccnc(NC(=O)C2CC2)c1)c1c(Cl)cccc1Cl`: the fraction unbound in data set [1] was 0.044; in data set [12] it was 0.041; in data set [13], 0.049. The Vd worked out at 1.1 L/kg in [2] and 0.6 L/kg in [27]. The clearance turned out to be 21 mL/min/kg in data set [3], 65 mL/min/kg in [22] and 65 mL/min/kg in [29]. The molecule further returned an AUC in data set [28] of 2.6 µM·h. The molecule also returned an apparent permeability from apical to basolateral (Papp A→B) in [5] of 30 ×10⁻⁶ cm/s. Moreover, the efflux ratio in data set [7] amounted to 0.4. For the same molecule, the CLhep predicted was 7 mL/min/kg in data set [8], 64 mL/min/kg in [14] and 16 mL/min/kg in data set [15]. Further, the results for the half-life in [24] and in data set [11] were 0.3 h and 1.2 h, respectively. Moreover, the bioavailability in [9] turned out to be 100%; in [26] it was 73%. The logD in [16] came out at 3.4.
Take `O=C(Nc1ccnc(NC(=O)[C@H]2C[C@H]2F)c1)c1c(F)cccc1Cl`: the fraction unbound is 0.036 in [1], 0.122 in data set [12] and 0.066 in data set [13]. The molecule also registered a Vd in data set [2] of 1.2 L/kg. This molecule returned a clearance in data set [3] of 39 mL/min/kg. Also, in [5], the Papp A→B was found to be 30 ×10⁻⁶ cm/s. Moreover, in data set [7], the efflux ratio amounted to 0.4. Also, the figures for the CLhep predicted in data set [8], in [14] and in [15] were 4 mL/min/kg, 64 mL/min/kg and 20 mL/min/kg, respectively. This molecule also showed a bioavailability in data set [9] of 100%. The molecule also showed a solubility in data set [10] of 28 µg/mL (≈ 79.6 µM). In data set [11], this molecule showed a half-life of 0.5 h.
On to `N#Cc1cc(F)c(C(=O)Nc2ccnc(NC(=O)[C@H]3C[C@H]3F)c2)c(Cl)c1`, for which the inhibition in vivo at 10 mg/kg in data set [30] was determined as 60%. In addition, the fraction unbound in data set [1] is 0.05; in data set [12], 0.09; in data set [13], 0.134. Also, in data set [2], the volume of distribution (Vd) stood at 2.3 L/kg. Moreover, in data set [31], the inhibition in vivo at 70 mg/kg was found to be 88%. Besides, the clearance in data set [3] was 1 mL/min/kg. Besides, the peak level in data set [4] (Cmax) was 108 µM. Also, the Papp A→B in data set [5] was 11 ×10⁻⁶ cm/s. Besides, in data set [6], the AUC is 917 µM·h. In data set [7], the efflux ratio is 1.5. Besides, the CLhep predicted in data set [8] was 8 mL/min/kg; in data set [14], 34 mL/min/kg; in [15] it was 11 mL/min/kg. In addition, the inhibition in vivo at 30 mg/kg in [32] was found to be 72%. In addition, the bioavailability in data set [9] was 70%. For the same molecule, the solubility in data set [10] stood at 53 µg/mL (≈ 141 µM). Besides, the half-life in data set [11] was 40 h. For the same molecule, the inhibition in vivo at 100 mg/kg in data set [33] is 77%. This molecule also displayed a logD in data set [16] of 2.5.
